The test system of this assay is MCT-induced PAH. Description: Monocrotoline (MCT)-induced model of pulmonary arterial hypertension (PAH) in rats. It counts as in vivo, rat. The following applies: day 28, oral BID, NTP42 and TP20 0.25 mg/kg/dose, Sildenafil 50 mg/kg/dose. The procedure:
FIGS. 19-23 show the efficacy of NTP42 in the monocrotoline (MCT)-induced model of pulmonary arterial hypertension (PAH) in rats. In brief, male Wistar/Kyoto rats were given a single dose of MCT (60 mg/kg, subcutaneously) and then treated with twice daily doses (oral dosing) for 28 days with either the drug vehicle, the test article NTP42 (0.25 mg/kg/dose, BID) or with the reference compounds Sildenafil (50 mg/kg/dose, BID) or TP20 (0.25 mg/kg/dose, BID). As a control, a group of rats were left untreated, i.e., no MCT or therapeutic drugs. At Day 28, post-MCT induction, rats were anaesthetised for cardiac surgery & hemodynamic parameters recorded. Thereafter, the trachea, heart & lungs were removed en masse, the wet weights of the heart & lungs recorded and then the lungs were harvested, fixed and processed for histopathology.
Aperio's ImageScope was used to analyze the digitally scanned H&E stained lung sections, where 10 random squares (approx. size or each square=1×10^6 μm^2) per lower, middle and upper section of lung tissue were selected for analysis. Within each square, all blood arterioles (complete arterioles within each square and those touching the right & bottom were assessed but not the left or top of the squares) were measured in ImageScope for luminal and total vessel diameter where the ratio of lumen to total vessel diameter was determined for each arteriole.
FIGS. 24-27 show the effect of the test articles on the mean (±S.E.M.) lumen: total vessel diameter ratio for all arterioles (Total) and the arterioles categorized by size: small, <50 μm total diameter; medium, 50-100 μm and large, >100 μm.
FIG. 27 presents data representing the mean (±SEM) lumen: total vessel diameter ratio for large arterioles (>100 μm).

Turning to `CCCc1nn(C)c2c(=O)[nH]c(-c3cc(S(=O)(=O)N4CCN(C)CC4)ccc3OCC)nc12` [Sildenafil, reference compound], the “lumen: total vessel diameter ratio versus animals treated with MCT-alone” value was “significantly increased”.
